Source: patent US20150031892A1, “SPHINGOLIPID METABOLITE MIMETICS” (Zhejiang University, priority 2012, published 2015)

B1: TRAIL: TNF-related apoptosis-inducing ligand, a death receptor ligand used as apoptosis-inducing agent (protein, UniProt P50591 1-281, looked up)
Tumor necrosis factor ligand …: MAMMEVQGGPSLGQTCVLIVIFTVLLQSLCVAVTYVYFTNELKQMQDKYSKSGIACFLKEDDSYWDPNDEESMNSPCWQVKWQLRQLVRKMILRTSEETISTVQEKQQNISPLVRERGPQRVAAHITGTRGRSNTLSSPNSKNEKALGRKINSWESSRSGHSFLSNLHLRNGELVIHEKGFYYIYSQTYFRFQEEIKENTKNDKQMVQYIYKYTSYPDPILLMKSARNSCWSKDAEYGLYSIYQGGIFELKENDRIFVSVTNEHLIDMDHEASFFGAFLVG

Key:
Assay type in all cases: cell-based
HepG2 = test: MTT cytotoxicity assay, HepG2 (liver cancer); settings: Homo sapiens
Procedure: (§1) Cell survival after exposure to the sphingolipid metabolite mimetics was examined by MTT cytotoxicity assay. HepG2, A431, HeLa, MCF-7 and SA cells (7000 cells/well) were seeded in each well of a 96-well plate for 24 h. New medium was added to give final concentrations of 0 to 200 μM of the sphingolipid metabolite mimetics. Then, 50 μl of 1 mg/ml 3-(4,5-dimethylthiazol-2-yl)-2,5-diphenyltetrazolium bromide (MTT, Sigma-Aldrich Chemical) was added to each well for 4 h incubation at 37° C. The purple formazan formed was then solubilized by DMSO and absorbance at 570 nm was read by a microplate reader (Molecular Devices, Sunnyvale, Calif.).

A431 = test: MTT cytotoxicity assay, A431 (squamous carcinoma); settings: Homo sapiens, A-431
Procedure: as §1

SA = test: MTT cytotoxicity assay, SA (pancreatic cancer as headed)
Procedure: as §1

MCF-7 = test: MTT cytotoxicity assay, MCF-7 (breast cancer); settings: Homo sapiens, MCF7; Breast Cancer MCF-7, MTT
Procedure: as §1

SiHa = test: MTT cytotoxicity assay, SiHa (ovarian cancer as headed); settings: Homo sapiens, Cervical Cancer SiHa
SW620 = test: MTT cytotoxicity assay, SW620 (colon cancer); settings: Homo sapiens, SW-620
SW480 = test: MTT cytotoxicity assay, SW480 (colon cancer); settings: Homo sapiens
[1] = system: multiple types of cancer cells; test: MTT cytotoxicity, statements over several cancer cell lines; settings: for direct anti-cancer cell activity: summary statement
Procedure: as §1

SW620 cells = test: Drug sensitivity MTT assay with TRAIL, SW620; parameters: scale not given here; settings: for NZJU alone mean value (sensitivity, growth inhibition): drug alone (19-100 μM; TRAIL 100 ng/ml); for NZJU alone mean value (sensitivity, growth inhibition) / combine mean value (sensitivity, growth inhibition): 48 h; for Enhanced mean value: enhancement due to co-administration with TRAIL; for combine mean value (sensitivity, growth inhibition): mimetic at the dose of its row combined with TRAIL 100 ng/ml
Procedure: (§2) Cell survival after exposure to the anti-tumor agents was examined by MTT cytotoxicity assay. Cells were seeded in each well of a 96-well plate for 24 h. After incubation with various concentrations of compounds, TRAIL, or both for 48 h, the medium was discarded. Then, 50 μl of 1 mg/ml 3-(4,5-dimethylthiazol-2-yl)-2,5-diphenyltetrazolium bromide (MTT, Sigma-Aldrich Chemical) was added to each well for 4 h incubation at 37° C. The purple formazan formed was then solubilized by DMSO and absorbance at 570 nm was read by a microplate reader (Molecular Devices, Sunnyvale, Calif.).

MCF-7 cells = test: Drug sensitivity MTT assay with TRAIL, MCF-7; parameters: scale not given here; settings: for NZJU alone mean value (sensitivity, growth inhibition): drug alone (19-100 μM; TRAIL 100 ng/ml); for NZJU alone mean value (sensitivity, growth inhibition) / combine mean value (sensitivity, growth inhibition): 48 h; for Enhanced mean value: enhancement due to co-administration with TRAIL; for combine mean value (sensitivity, growth inhibition): mimetic at the dose of its row combined with TRAIL 100 ng/ml
Procedure: as §2

HELA cells = test: Drug sensitivity MTT assay with TRAIL, HELA; parameters: scale not given here; settings: for NZJU alone mean value (sensitivity, growth inhibition): drug alone (19-100 μM; TRAIL 100 ng/ml); for NZJU alone mean value (sensitivity, growth inhibition) / combine mean value (sensitivity, growth inhibition): 48 h; for Enhanced mean value: enhancement due to co-administration with TRAIL; for combine mean value (sensitivity, growth inhibition): mimetic at the dose of its row combined with TRAIL 100 ng/ml
Procedure: as §2

[2] = system: cancer cells (TRAIL resistance); test: Sensitization of cancer cells to TRAIL-induced apoptosis, general statements; settings: summary statement
Procedure: as §2

| Molecule | IC50 (HepG2) [µM] | IC50 (A431) [µM] | IC50 (SA) [µM] | IC50 (MCF-7) [µM] | IC50 (SiHa) [µM] | IC50 (SW620) [µM] | IC50 (SW480) [µM] | direct anti-cancer cell activity [1] | NZJU alone mean value (sensitivity, growth inhibition) (SW620 cells) | Enhanced mean value (SW620 cells) | combine mean value (sensitivity, growth inhibition) (SW620 cells) | NZJU alone mean value (sensitivity, growth inhibition) (MCF-7 cells) | Enhanced mean value (MCF-7 cells) | combine mean value (sensitivity, growth inhibition) (MCF-7 cells) | NZJU alone mean value (sensitivity, growth inhibition) (HELA cells) | Enhanced mean value (HELA cells) | combine mean value (sensitivity, growth inhibition) (HELA cells) | TRAIL sensitization activity [2] | further results |
| --- | --- | --- | --- | --- | --- | --- | --- | --- | --- | --- | --- | --- | --- | --- | --- | --- | --- | --- | --- |
| CCCCCCCCCCCCNC(=O)[C@@H](NC(=O)c1ccco1)[C@@H](C)O [NZJU13, N-((2S,3R)-3-hydroxy-1-oxo-1-(dodecylamino)butan-2-yl)-Furan-2-carboxamide] | 147 ± 22.3 | 92.4 ± 2.64 | 93.5 ± 3.13 | 67.5 ± 4.88 | 64.3 ± 1.68 | 87.5 ± 7.58 | 125 ± 16.1 | direct anti-cancer cell activity | 0.126 | 0.321 | 0.520 | 0.148 | 0.321 | 0.582 | 0.146 | 0.254 | 0.435 | TRAIL sensitization activity |  |
| CCCCCCCCCCCCNC(=O)[C@@H](NC(=O)c1ccccc1)[C@@H](C)O [NZJU16, N-((2S,3R)-3-hydroxy-1-oxo-1-(dodecylamino)butan-2-yl)-benzamide] | > 400 | 41.2 ± 0.69 | 75.5 ± 6.24 | 36.6 ± 8.86 | 63.9 ± 6.01 | ≥ 200 | 67.2 ± 7.42 | direct anti-cancer cell activity | 0.376 | 0.304 | 0.607 | 0.479 | 0.197 | 0.741 | 0.264 | 0.298 | 0.597 | TRAIL sensitization activity |  |
| CCCCCCCCCCCCNC(=O)[C@@H](NC(=O)c1nccc2ccccc12)[C@@H](C)O [NZJU30, N-((2S,3R)-3-hydroxy-1-oxo-1-(dodecylamino)butan-2-yl)-isoquinoline-1-carboxamide] | 65.7 ± 2.63 | 62.8 ± 7.56 | 51.93 ± 0.42 | 50.5 ± 5.65 | 56.6 ± 4.91 | 65.8 ± 4.14 | 58.8 | direct anti-cancer cell activity | −0.038 | 0.375 | 0.493 | 0.002 | 0.157 | 0.274 | 0.057 | 0.075 | 0.195 | TRAIL sensitization activity | NZJU alone mean value (sensitivity, growth inhibition) (SW620 cells; listed as NZJU2f): very little sensitivity |
| CCCCCCCCCCCCCCNC(=O)[C@@H](NC(=O)c1nccc2ccccc12)[C@@H](C)O [NZJU31, N-((2S,3R)-3-hydroxy-1-oxo-1-(tetradecylamino)butan-2-yl)-isoquinoline-1-carboxamide] | 28.6 ± 3.77 | 23 ± 3.72 | 24.4 ± 3.6 | 22.8 ± 3.94 | 21.6 ± 2.26 | 30.4 ± 2.09 | 23.6 |  |  |  |  |  |  |  |  |  |  |  | IC50 ([1]; all five cell lines tested, read-out: IC50 values): < 30 µM |
| CCCCCCCCCCCCNC(=O)[C@@H](NC(=O)c1cccs1)[C@@H](C)O [NZJU33, N-((2S,3R)-3-hydroxy-1-oxo-1-(dodecylamino)butan-2-yl)-2-thiophene carboxamide] | 30.1 ± 3.84 | 16.6 ± 2.12 | 23.3 ± 3.33 | 30.4 ± 2.8 | 23.9 ± 3.65 | 29.2 ± 0.57 | 30.2 | direct anti-cancer cell activity |  |  |  |  |  |  |  |  |  |  |  |
| CCCCCCCCCCCCCCNC(=O)[C@@H](NC(=O)c1cccs1)[C@@H](C)O [NZJU34, N-((2S,3R)-3-hydroxy-1-oxo-1-(tetradecylamino)butan-2-yl)-2-thiophene carboxamide] | 88.4 ± 15.5 | 26.4 ± 4.03 | 21.2 ± 3.78 | 36.07 ± 0.27 | 63 ± 0.25 | 78.4 ± 11.1 | 70.3 | direct anti-cancer cell activity | 0.315 | 0.275 | 0.664 | 0.444 | 0.263 | 0.759 | 0.334 | 0.375 | 0.744 | TRAIL sensitization activity |  |
| CCCCCCCCNC(=O)[C@@H](NC(=O)c1ccccc1)[C@@H](C)O [NZJU39, N-((2S,3R)-3-hydroxy-1-oxo-1-(octylamino)butan-2-yl)-benzamide] | 136 ± 5.92 | 61.3 ± 4.09 | 34.6 ± 4.17 | 111 ± 4.66 | 112 ± 2.43 | ≥ 200 | > 200 | direct anti-cancer cell activity |  |  |  |  |  |  |  |  |  |  |  |
| CCCCCCCCNC(=O)[C@@H](NC(=O)c1cccs1)[C@@H](C)O [NZJU44, N-((2S,3R)-3-hydroxy-1-oxo-1-(octylamino)butan-2-yl)-2-thiophene carboxamide] | 149 ± 8.7 | 32.1 ± 4.6 | 60.9 ± 4.29 | 72.5 ± 3.37 | 91.85 ± 0.59 | 136 ± 42.6 |  | direct anti-cancer cell activity | 0.563 | 0.128 | 0.853 | 0.625 | 0.042 | 0.717 | 0.218 | 0.357 | 0.315 | TRAIL sensitization activity | NZJU alone mean value (sensitivity, growth inhibition) (MCF-7 cells; listed as NZJU1g): efficient at killing MCF-7 cells |
| CCCCCCCCNC(=O)[C@@H](NC(=O)c1cc2ccccc2o1)[C@@H](C)O [NZJU45, N-((2S,3R)-3-hydroxy-1-oxo-1-(octylamino)butan-2-yl)-benzofuran-2-carboxamide] | 81.3 ± 9.13 | 52.7 ± 3.82 | 40.8 ± 3.63 | 47.2 ± 7.3 | 66.5 ± 2.5 | ≥ 200 |  | direct anti-cancer cell activity | 0.205 | 0.309 | 0.516 | 0.021 | 0.382 | 0.538 | 0.173 | 0.223 | 0.432 | TRAIL sensitization activity |  |
| B1 |  |  |  |  |  |  |  |  |  |  |  | 0.118 |  |  | 0.036 |  |  |  |  |
